Tests used:
[1] = target: hIMPDH1; details: read-out: hIMPDH1 Ki; cited from earlier work
[2] = target: T1, CpIMPDH (Cryptosporidium parvum, UniProt Q8T6T2); details: read-out: CpIMPDH IC50; cited from earlier work
T1 sequence (Q8T6T2 1-400): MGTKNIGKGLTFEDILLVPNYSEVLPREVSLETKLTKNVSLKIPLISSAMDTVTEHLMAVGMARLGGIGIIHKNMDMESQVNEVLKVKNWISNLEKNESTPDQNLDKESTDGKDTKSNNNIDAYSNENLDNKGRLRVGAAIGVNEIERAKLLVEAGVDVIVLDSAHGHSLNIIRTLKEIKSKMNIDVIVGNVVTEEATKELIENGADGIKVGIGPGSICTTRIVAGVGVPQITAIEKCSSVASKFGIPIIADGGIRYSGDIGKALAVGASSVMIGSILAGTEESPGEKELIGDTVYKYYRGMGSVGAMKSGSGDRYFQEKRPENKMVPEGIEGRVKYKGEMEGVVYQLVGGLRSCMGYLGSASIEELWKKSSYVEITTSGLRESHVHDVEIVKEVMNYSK

[3] = target: T1, CpIMPDH; experiment: CpIMPDH inhibition, NADH production monitored by fluorescence; details: for CpIMPDH inhibition, result in words: qualitative statement; for fold increase in CpIMPDH activity: relative to 8a; for fold loss of CpIMPDH potency / inhibition: relative to 8k
[4] = target: hIMPDH2 (Homo sapiens, UniProt P12268); experiment: Assessment of hIMPDH2 inhibition, NADH production; assay type: biochemical; details: read-out: hIMPDH2 inhibition

Row | SMILES | CpIMPDH inhibition, result in words [3] | also measured
1 | COc1c(C)c2c(c(O)c1C/C=C(\C)CCC(=O)O)C(=O)OC2 [mycophenolic acid] |  | Ki [1]: 0.033 µM; IC50 [2]: ~10 µM
2 | O=C(Cn1ncc2c(=O)oc3ccccc3c21)Nc1ccc(C(F)(F)F)cc1 [8e] |  | fold increase in CpIMPDH activity [3]: 3 fold
3 | O=C(Cn1ncc2c(=O)oc3ccccc3c21)Nc1cccc(Cl)c1 [8b] | loss of inhibition | 
4 | COc1cc(NC(=O)Cn2ncc3c2-c2ccccc2OC3)ccc1Cl [13e] |  | fold loss of CpIMPDH potency / inhibition [3]: 3 fold
5 | O=C(Cn1ncc2c(=O)oc3ccccc3c21)Nc1ccc(Cl)cc1Cl [8g] | no inhibition activity | 
6 | O=C(Cn1ncc2c(=O)oc3ccccc3c21)Nc1ccc(F)cc1 [8d] |  | fold increase in CpIMPDH activity [3]: 3 fold
7 | COc1cccc(NC(=O)Cn2ncc3c(=O)oc4ccccc4c32)c1 [8a, 4-oxo-N-(3-methoxyphenyl)-[1]benzopyrano[4,3-c]pyrazole-1(4H)-acetamide] |  | inhibition at 5 µM [4]: < 20%
8 | O=C(Cn1ncc2c(=O)oc3ccccc3c21)Nc1ccccc1Cl [8c] | no inhibitory activity | 
9 | COc1cc(NC(=O)C(C)n2ncc3c(=O)oc4ccccc4c32)ccc1Cl (centres unmarked) [8m] |  | fold loss of CpIMPDH potency / inhibition [3]: 3 fold

Continued, in another order:

Row | CpIMPDH inhibition, result in words [3] | SMILES | also measured
10 | only weak or no inhibitory activity | O=C(Cn1ncc2c(=O)oc3ccccc3c21)Nc1ccc2[nH]cnc2c1 [13a] | 
11 | only weak or no inhibitory activity | O=C(Cn1ncc2c(=O)oc3ccccc3c21)Nc1ccc2[nH]ccc2c1 [13c] | 
12 | loss of activity | COc1cc(N(C)C(=O)Cn2ncc3c(=O)oc4ccccc4c32)ccc1Cl [8l] | 
13 | loss of enzyme inhibition | COc1ccc(NC(=O)Cn2ncc3c(=O)oc4ccccc4c32)cc1OC [8i] | 

— article PMC4281095 (Journal of Medicinal Chemistry, 2014)
